Reference: US4150137A, “Pyridylalkyl esters of 2-(p-isobutylphenyl)acetic acid and propionic acids and use” (Hisamitsu Pharmaceutical Co. Inc., priority 1975, dated 1979)

Experiments:
[1] = tested on: male mice of dd-strain; assay type: in vivo; conditions: death of animals 72 hours following administration
Description: Each test compound suspended in 0.5% tragacanth-saline was administered intraperitoneally or orally to male mice of dd-strain(body weight 16-24 g). The lethal dose was estimated from the death of animals 72 hours following administration.

[2] = tested on: carrageenin-induced leakage of the pigment, dorsal skin; experiment: Anti-inflammatory activity for topical route (carrageenin, leakage of pigment in dorsal skin); assay type: in vivo, rat (Wistar-strain); conditions: for anti-inflammatory effect, topical (relative inhibition, ibuprofen = 1.0): 1% in polyethylene glycol 300, percent inhibition divided by that of ibuprofen
Description: The dorsal skin of male rats of Wistar-strain(body weight: about 100 g) were depilated. Carrageenin suspension was injected intra-dermally at a dose of 250 γ/0.05 ml/site. […] Immediately after injection, the filter paper containing 125.2±18.0 mg of the polyethylene glycol was applied on the injected site. After 3 hours, 1% pontamine sky blue solution was injected intravenously at a dose of 0.5 ml/kg. After further 3 hours, the animals were sacrificed and their dorsal skin were removed to measure the area of leakage of the pigment. The percent inhibition was determined with respect to the results for the control animals.

[3] = tested on: carrageenin edema; experiment: Anti-inflammatory activity for oral route (carrageenin edema, hind paw); assay type: in vivo, rat (Wistar-strain); conditions: for anti-inflammatory effect, oral, 10 mg/kg (relative inhibition, ibuprofen = 1.0): 10 mg/kg oral; for anti-inflammatory effect, oral, 10 mg/kg (relative inhibition, ibuprofen = 1.0) / anti-inflammatory effect, oral, 50 mg/kg (relative inhibition, ibuprofen = 1.0): percent inhibition divided by that of ibuprofen, carrageenin edema after 3 hours; for anti-inflammatory effect, oral, 50 mg/kg (relative inhibition, ibuprofen = 1.0): 50 mg/kg oral; for mean percent inhibition (carrageenin edema): oral
Description: After 30 minutes 0.5-1.0% carrageenin suspended in the water for injection was injected subcutaneously to a hind paw. After 3 hours the carrageenin edema was measured by volume, and the percent inhibition was determined with respect to the results for the control animals.

[4] = tested on: writhing syndrome; experiment: Analgetic activity (acetic acid writhing syndrome); assay type: in vivo, mouse (dd-strain); conditions: Mus musculus, 1 h; oral, mice, 0.6% acetic acid i.p. one hour later; Litchfield-Wilcoxon; read-out: analgetic effect ED50 (95% C.L.)
Description: Each test compound suspended in 0.5% tragacanth-saline was orally administered to dd-strain mice(body weight: 18-20 g). After one hour 0.6% acetic acid solution was injected intraperitoneally in a volume of 0.1 ml/10 g.

Row | Structure (SMILES) | acute toxicity, oral (lethal dose) [1] [mg/kg] | anti-inflammatory effect, topical (relative inhibition, ibuprofen = 1.0) [2] | anti-inflammatory effect, oral, 10 mg/kg (relative inhibition, ibuprofen = 1.0) [3] | anti-inflammatory effect, oral, 50 mg/kg (relative inhibition, ibuprofen = 1.0) [3] | ED50 [4] [mg/kg] | mean percent inhibition (topical route) ([2]; 1% in polyethylene glycol 300) [%] | mean percent inhibition (carrageenin edema) ([3]; 10 mg/kg) [%] | mean percent inhibition (carrageenin edema) ([3]; 50 mg/kg) [%]
1 | CC(C)Cc1ccc(C(C)C(=O)OCC2CC2)cc1 (centres unmarked) | 2000 | 3.7 | 0.8 | 1.6 | 103 |  |  | 
2 | CC(C)Cc1ccc(C(C)C(=O)OCc2ccccc2)cc1 (centres unmarked) | > 2000 | 3.1 | 0.7 | 0.9 | 118 |  |  | 
3 | CC(C)Cc1ccc(C(C)C(=O)OCc2ccccc2Cl)cc1 (centres unmarked) | > 2000 | 2.5 | 0.5 | 1.0 | 51.4 |  |  | 
4 | CC(C)Cc1ccc(C(C)C(=O)OCc2ccc(Cl)cc2)cc1 (centres unmarked) | > 2000 | 2.8 | 0.5 | 1.0 | 486 |  |  | 
5 | CC(C)Cc1ccc(C(C)C(=O)OCc2ccccc2F)cc1 (centres unmarked) |  | 2.9 | 1.6 | 1.7 | 202 |  |  | 
6 | CC(C)Cc1ccc(C(C)C(=O)OCc2cccc(F)c2)cc1 (centres unmarked) |  | 0.9 | 0.8 | 1.7 | 634 |  |  | 
7 | CC(C)Cc1ccc(C(C)C(=O)OCc2ccc(F)cc2)cc1 (centres unmarked) |  |  | 1.1 | 1.2 |  |  |  | 
8 | Cc1ccc(COC(=O)C(C)c2ccc(CC(C)C)cc2)cc1 (centres unmarked) |  | 1.9 | 1.7 | 1.5 | 230 |  |  | 
9 | COc1ccc(COC(=O)C(C)c2ccc(CC(C)C)cc2)cc1 (centres unmarked) |  | 2.3 | 0.8 | 1.4 | 220 |  |  | 
10 | CC(C)Cc1ccc(C(C)C(=O)OCc2c(Cl)cccc2Cl)cc1 (centres unmarked) | > 2000 | 2.1 | 0.6 | 1.0 | 79.6 |  |  | 
11 | CC(C)Cc1ccc(C(C)C(=O)OCCN(C)C)cc1 (centres unmarked) | 1000 to 2000 | 2.0 | 0.8 | 1.2 | 53.7 |  |  | 
12 | CCN(CC)CCOC(=O)C(C)c1ccc(CC(C)C)cc1 (centres unmarked) | 500 to 1000 | 3.0 | 1.2 | 0.9 | 318 |  |  | 
13 | CC(C)Cc1ccc(C(C)C(=O)OCCCN(C)C)cc1 (centres unmarked) | 500 to 1000 | 2.2 | 0.7 | 1.1 | 29.9 |  |  | 
14 | CC(C)Cc1ccc(C(C)C(=O)OCCN2CCOCC2)cc1 (centres unmarked) | 1000 to 2000 | 1.6 | 0.7 | 0.9 | 154 |  |  | 
15 | CC(C)Cc1ccc(C(C)C(=O)OCCN2CCN(C)CC2)cc1 (centres unmarked) | 1000 to 2000 | 2.5 | 1.0 | 1.1 | 31.6 |  |  | 
16 | CC(C)Cc1ccc(C(C)C(=O)OCc2ccccn2)cc1 (centres unmarked) | 1000 to 2000 | 4.0 | 0.7 | 1.8 | 67.8 |  |  | 
17 | CC(C)Cc1ccc(C(C)C(=O)OCc2cccnc2)cc1 (centres unmarked) | 1000 to 2000 | 1.7 | 1.0 | 1.4 | 31.2 |  |  | 
18 | CC(C)Cc1ccc(C(C)C(=O)OCc2ccncc2)cc1 (centres unmarked) | > 2000 | 2.7 | 1.0 | 1.2 | 87.1 |  |  | 
19 | CC(C)Cc1ccc(C(C)C(=O)OCc2cccnc2Cl)cc1 (centres unmarked) | > 2000 | 1.8 | 0.8 | 2.5 | 762 |  |  | 
20 | CC(C)Cc1ccc(C(C)C(=O)OCC2CCCO2)cc1 (centres unmarked) | 1000 to 2000 | 3.1 | 0.6 | 0.9 | 91.6 |  |  | 
21 | COC(=O)C(C)c1ccc(CC(C)C)cc1 (centres unmarked) [Compound 1] | > 2000 | 3.5 | 0.8 | 1.4 | 109 |  |  | 
22 | CCCOC(=O)C(C)c1ccc(CC(C)C)cc1 (centres unmarked) [Compound 2, 2-(4-isobutylphenyl)propionic acid-n-propyl ester] | > 2000 | 3.2 | 0.7 | 1.1 | 192 |  |  | 
23 | CCCCCCOC(=O)C(C)c1ccc(CC(C)C)cc1 (centres unmarked) [Compound 6] | > 2000 | 3.5 |  | 1.2 | 215 |  |  | 
24 | CC(C)Cc1ccc(C(C)C(=O)OCC(F)(F)F)cc1 (centres unmarked) [Compound 9, 2-(p-isobutylphenyl)propionic acid-2,2,2-trifluoroethyl ester] | 1000 to 2000 | 3.6 | 0.8 | 1.3 | 135 |  |  | 
25 | CC(C)Cc1ccc(C(C)C(=O)OCCO)cc1 (centres unmarked) [Compound 10] | > 2000 | 1.9 | 0.5 | 1.0 | 155 |  |  | 
26 | CC(C)Cc1ccc(C(C)C(=O)OCC(O)CO)cc1 (centres unmarked) [Compound 11] | 1000 to 2000 |  | 1.1 | 0.9 | 143 |  |  | 
27 | COCOC(=O)C(C)c1ccc(CC(C)C)cc1 (centres unmarked) [Compound 12] | 500 to 1000 | 2.5 | 1.0 | 1.2 | 174 |  |  | 
28 | CCOCOC(=O)C(C)c1ccc(CC(C)C)cc1 (centres unmarked) [Compound 13] | > 2000 | 2.8 | 1.3 | 1.0 | 155 |  |  | 
29 | CC(=O)OCOC(=O)C(C)c1ccc(CC(C)C)cc1 (centres unmarked) [Compound 17] |  |  | 0.9 | 0.9 |  |  |  | 
30 | CC(C)Cc1ccc(C(C)C(=O)O)cc1 (centres unmarked) [ibuprofen, 2-(p-isobutylphenyl)propionic acid, reference compound] |  |  |  |  | 45.8 | 23.8 | 33.5 | 37.4
